{"source": "patent USRE47193E1", "about": "“Selectively substituted quinoline compounds” (EISAI R&D MANAGEMENT CO., LTD., priority 2013, dated 2019)", "key": {"Human TLR7/8": {"system": "Human TLR7/8", "experiment": "Human PBMC cell-based assay, TLR7/8 stimulus (RNA-Ig), cytokine ELISA", "summary_of_the_method": "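The agonist was RNA-Ig, a U1 snRNA-derived 26-mer RNA (2.5 μM) complexed with RNA-cross-reacting anti-ssDNA mAb (1:25 or 1 ug/ml), added after 30 min compound pre-incubation (0.1% DMSO). Density-gradient PBMC from healthy donors, 2×10^5/well, were stimulated 20 h at 37 °C; cytokines quantified by ELISA.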"}, "Mouse Splenocytes": {"system": "Mouse Splenocytes", "experiment": "Mouse spleen cell-based assay (R848, IL-6 ELISA)", "conditions": "Mus musculus, Splenocyte, BALB/c spleen cells, 370 nM R848", "description": "Mouse Spleen cell-based assay. Spleens were harvested from female BALB/c mice (Jackson Labs, Bar Harbor, Me.) euthanized by CO2. A single cell suspension was obtained by passing spleens through a 40 μm an nylon cell strainer. Cells were washed twice with 50 ml PBS (Mediatech, Inc., Manassas, Va.) and red blood cells were lysed in 5 ml RBC Lysis buffer (eBioscience, Inc., San Diego, Calif.) for 5 minutes at room temperature. Cells were washed twice more in PBS and finally resuspended in supplemented RPMI-1640 at 2.5×10^6 cells/ml. Cells were plated at 100 μl/well (2.5×10^5 cells/well) in 96-well tissue culture treated plates (Falcon). Serial dilutions of compounds solubilized in 100% DMSO were added in triplicate to cells to yield a final concentration of 0.1% DMSO. Cells were incubated with compound for 30 minutes at 37° C., 5% CO2 before adding 100 μl/well of 740 nM R848 (Resiquimod; GLSynthesis, Worcester, Mass.) in complete media for a final concentration of 370 nM R848. Cells were incubated for 20 hours at 37° C., 5% CO2. Culture supernatants were collected, and levels of IL-6 were assessed by standard ELISA procedure according to the manufacturer's recommended protocol (BD Biosciences, Inc., San Diego, Calif.)."}, "[1]": {"conditions": "primary human PBMC assay, TLR7/8 potency, ligand not given, read-out: Human PBMCs IC50"}}, "note": "Like-named read-outs stand apart in the source and are kept apart here.", "data": [{"molecule": "C[C@@H]1CN(c2ccc(C#N)c3ncccc23)C[C@H](CN2CCNCC2)O1", "note": "[ER-887253]", "values": [{"measurement": "IC50", "setting": "Human TLR7/8; [1]", "result": 0.001, "unit": "µM"}, {"measurement": "IC50", "setting": "Mouse Splenocytes", "result": 0.049, "unit": "µM"}]}, {"molecule": "CC1CNC(=O)CN1C[C@H]1CN(c2ccc(C#N)c3ncccc23)C[C@@H](C)O1", "note": "(stereo partly shown) [ER-887722]", "values": [{"measurement": "IC50", "setting": "Human TLR7/8; [1]", "result": 0.065, "unit": "µM"}, {"measurement": "IC50", "setting": "Mouse Splenocytes", "result": 0.463, "unit": "µM"}]}, {"molecule": "C[C@@H]1CN(c2ccc(C#N)c3ncccc23)C[C@H](CNC2CCCC2)O1", "note": "[ER-887145]", "values": [{"measurement": "IC50", "setting": "Human TLR7/8; [1]", "result": 0.015, "unit": "µM"}]}, {"molecule": "C[C@@H]1CN(c2ccc(C#N)c3ncccc23)C[C@H](CN2CCC(O)CC2)O1", "note": "[ER-886953]", "values": [{"measurement": "IC50", "setting": "Human TLR7/8; [1]", "result": 0.026, "unit": "µM"}]}, {"molecule": "CCN(CCO)CCCC(C)Nc1ccnc2cc(Cl)ccc12", "note": "(stereo not shown) [HCQ, hydroxychloroquine, reference compound]", "values": [{"measurement": "IC50", "setting": "Human TLR7/8; Hu PBMC, ligand RNA-Ig, analyte IL-6, read-out: IC50", "result": "1 to 2", "unit": "µM"}]}, {"molecule": "C[C@@H]1CN(C[C@H]2CN(c3ccc(C#N)c4ncccc34)C[C@@H](C)O2)CCN1", "note": "[ER-887269]", "values": [{"measurement": "IC50", "setting": "Human TLR7/8; [1]", "result": 0.001, "unit": "µM"}]}, {"molecule": "C[C@@H]1CN(c2ccc(C#N)c3ncccc23)C[C@H](CN2CCC(N3CCCCC3)CC2)O1", "note": "[ER-887927, 5-((2S,6R)-2-([1,4′-bipiperidin]-1′-ylmethyl)-6-methylmorpholino)quinoline-8-carbonitrile]", "values": [{"measurement": "IC50", "setting": "Mouse Splenocytes", "result": 0.026, "unit": "µM"}]}, {"molecule": "CC1CN(c2ccc(C#N)c3ncccc23)CC(CN2CCN(C)CC2C)O1", "note": "(stereo not shown) [ER-889556]", "values": [{"measurement": "IC50", "setting": "Human TLR7/8; [1]", "result": 0.01, "unit": "µM"}, {"measurement": "IC50", "setting": "Mouse Splenocytes", "result": 0.432, "unit": "µM"}]}, {"molecule": "CC1CN(c2ccc(C#N)c3ncccc23)CC(CN2CCC(NC(=O)C(C)C)CC2)O1", "note": "(stereo not shown) [ER-889745]", "values": [{"measurement": "IC50", "setting": "Human TLR7/8; [1]", "result": 0.046, "unit": "µM"}, {"measurement": "IC50", "setting": "Mouse Splenocytes", "result": 0.09, "unit": "µM"}]}, {"molecule": "C[C@@H]1CN(c2ccc(C#N)c3ncccc23)C[C@H](CO)O1", "note": "[ER-885493, 5-((2R,6R)-2-(hydroxymethyl)-6-methylmorpholino)quinoline-8-carbonitrile]", "values": [{"measurement": "IC50", "setting": "Human TLR7/8; [1]", "result": 0.18, "unit": "µM"}, {"measurement": "IC50", "setting": "Mouse Splenocytes", "result": 0.517, "unit": "µM"}]}, {"molecule": "C[C@@H]1CN(c2ccc(C#N)c3ncccc23)C[C@H](CN2CC[C@H](O)C2)O1", "note": "[ER-886820]", "values": [{"measurement": "IC50", "setting": "Human TLR7/8; [1]", "result": 0.062, "unit": "µM"}]}, {"molecule": "C[C@@H]1CN(c2ccc(C#N)c3ncccc23)C[C@H](CN2CCN(C)CC2)O1", "note": "[ER-887723]", "values": [{"measurement": "IC50", "setting": "Human TLR7/8; [1]", "result": 0.007, "unit": "µM"}, {"measurement": "IC50", "setting": "Mouse Splenocytes", "result": 0.047, "unit": "µM"}]}, {"molecule": "C[C@@H]1CN(c2ccc(C#N)c3ncccc23)C[C@H](C(=O)NC2CCN(C)CC2)O1", "note": "[ER-899464, (2R,6R)-4-(8-cyanoquinolin-5-yl)-6-methyl-N-(1-methylpiperidin-4-yl)morpholine-2-carboxamide]", "values": [{"measurement": "IC50", "setting": "Human TLR7/8; [1]", "result": 0.001, "unit": "µM"}]}, {"molecule": "CC(=O)NC1CCN(CC2CN(c3ccc(C#N)c4ncccc34)CC(C)O2)CC1", "note": "(stereo not shown) [ER-888288]", "values": [{"measurement": "IC50", "setting": "Human TLR7/8; [1]", "result": 0.015, "unit": "µM"}, {"measurement": "IC50", "setting": "Mouse Splenocytes", "result": 0.135, "unit": "µM"}]}, {"molecule": "CC1CN(c2ccc(C#N)c3ncccc23)CC(CN2CCC(N(C)C)CC2)O1", "note": "(stereo not shown) [ER-887725]", "values": [{"measurement": "IC50", "setting": "Human TLR7/8; [1]", "result": 0.002, "unit": "µM"}]}, {"molecule": "C[C@@H]1CN(c2ccc(C#N)c3ncccc23)C[C@H](C)O1", "note": "[ER-878952]", "values": [{"measurement": "IC50", "setting": "Human TLR7/8; [1]", "result": 0.151, "unit": "µM"}, {"measurement": "IC50", "setting": "Mouse Splenocytes", "result": 1.61, "unit": "µM"}]}, {"molecule": "CC[C@H]1CN(C[C@H]2CN(c3ccc(C#N)c4ncccc34)C[C@@H](C)O2)CCN1", "note": "[ER-890963]", "values": [{"measurement": "IC50", "setting": "Human TLR7/8; [1]", "result": 0.002, "unit": "µM"}, {"measurement": "IC50", "setting": "Mouse Splenocytes", "result": 0.25, "unit": "µM"}]}, {"molecule": "CCCN1CCN(C[C@H]2CN(c3ccc(C#N)c4ncccc34)C[C@@H](C)O2)CC1", "note": "[ER-887724]", "values": [{"measurement": "IC50", "setting": "Human TLR7/8; [1]", "result": 0.006, "unit": "µM"}, {"measurement": "IC50", "setting": "Mouse Splenocytes", "result": 0.07, "unit": "µM"}]}, {"molecule": "C[C@@H]1CN(c2ccc(C#N)c3ncccc23)C[C@H](C(=O)N[C@H]2CNC[C@H]2F)O1.Cl", "note": "[ER-899742, (2R,6R)-4-(8-cyanoquinolin-5-yl)-N-[(3S,4R)-4-fluoropyrrolidin-3-yl]-6-methylmorpholine-2-carboxamide hydrochloride]", "values": [{"measurement": "IC50", "setting": "Human TLR7/8; Hu PBMC, ligand RNA-Ig, analyte IL-6", "result": 0.0009, "unit": "µM"}, {"measurement": "fold more potent versus HCQ", "setting": "Human TLR7/8; RNA-Ig TLR7/8 stimulus", "result": "approximately 1000 fold"}, {"measurement": "IC50", "setting": "Human TLR7/8; read-out: Human PBMCs IC50, primary human PBMC assay, TLR7/8 potency, ligand not given", "result": 0.001, "unit": "µM"}]}]}
